Source: ChEMBL document CHEMBL3774370, “Structure-activity relationships (SAR) and structure-kinetic relationships (SKR) of sulphone-based CRTh2 antagonists” (Eur J Med Chem, 2016)

Legend:
[1] = test system: Prostaglandin D2 receptor 2, CRTh2 (Homo sapiens); assay: Antagonist activity at CRTH2 receptor (unknown origin) expressed in CHOK1 cells assessed as dissociation half life measured up to 25 hrs by GTPgammaS assay; settings: CHO-K1
[2] = molecular target: T1, Prostaglandin D2 receptor 2 (Homo sapiens, UniProt Q9Y5Y4); assay: Displacement of [35S]-GTPgammaS from CRTH2 receptor (unknown origin) expressed in CHOK1 cell membrane after 1 hr by liquid scintillation counter; format: cell membranes, CHO-K1
T1 sequence (Q9Y5Y4 whole entry): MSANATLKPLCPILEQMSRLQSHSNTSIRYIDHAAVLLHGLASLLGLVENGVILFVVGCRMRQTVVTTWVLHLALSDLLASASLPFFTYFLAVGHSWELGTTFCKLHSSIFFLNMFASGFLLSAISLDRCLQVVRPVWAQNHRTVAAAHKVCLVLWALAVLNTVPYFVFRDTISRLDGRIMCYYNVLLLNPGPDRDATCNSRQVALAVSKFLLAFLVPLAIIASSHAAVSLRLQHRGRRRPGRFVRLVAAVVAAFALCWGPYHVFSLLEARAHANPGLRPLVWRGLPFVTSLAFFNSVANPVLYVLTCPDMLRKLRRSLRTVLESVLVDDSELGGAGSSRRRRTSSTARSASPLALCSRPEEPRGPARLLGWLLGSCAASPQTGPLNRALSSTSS

[3] = molecular target: T2, Prostaglandin D2 receptor 2 (Homo sapiens) (UniProt Q9Y5Y4); assay: Displacement of [35S]-GTPgammaS from CRTH2 receptor (unknown origin) expressed in CHOK1 cell membrane at 10 uM after 1 hr by liquid scintillation counter; format: cell membranes; settings: CHO-K1
T2 sequence (whole entry): T1 sequence (Q9Y5Y4 whole entry)

Structure (SMILES)	T1/2 [1] [h]	IC50 [2] [µM]	inhibition [3] [%]
Cc1c(Cc2ccccc2S(=O)(=O)c2ccc(F)cc2)nc(-c2ccccc2)n1CC(=O)O	0.6	0.008	–
COc1ccc(S(=O)(=O)c2ccc(F)cc2)c(Cc2c3c(n(CC(=O)O)c2C)CCCC3=O)c1	21	0.002	–
Cc1c(Cc2ccccc2S(=O)(=O)c2ccccc2)c2cc(F)ccc2n1CC(=O)O	1.3	0.014	–
O=C(O)Cn1nc(Cc2ccccc2S(=O)(=O)c2ccccc2)c2ccccc2c1=O	–	–	< 25
Cc1c(-c2ccccc2)n(CC(=O)O)c(=O)n1Cc1ccccc1S(=O)(=O)c1ccc(F)cc1	–	10	–
Cc1c(Cc2ccccc2S(=O)(=O)c2ccc(F)cc2)c2c(n1CC(=O)O)CCCC2	–	0.104	–
COc1ccc(S(=O)(=O)c2ccc(F)cc2)c(Cn2cc(CC(=O)O)c3ccc(C)nc32)c1	–	0.018	–
O=C(O)Cc1nn(Cc2ccccc2S(=O)(=O)c2ccccc2)c(=O)c2ccccc12	0.04	0.065	–
O=C(O)Cc1nc(Cc2ccccc2S(=O)(=O)c2ccccc2)n2ccccc12	–	3	–
Cc1c(Cc2ccccc2S(=O)(=O)c2ccccc2)c(-c2ccccc2)nn1CC(=O)O	–	0.085	–
O=C(O)Cc1cccn(Cc2ccccc2S(=O)(=O)c2ccccc2)c1=O	–	–	< 25
COc1ccc(S(=O)(=O)c2ccc(F)cc2)c(Cc2c(C)c(CC(=O)O)c3ccncn23)c1	–	0.005	–
COc1ccc(S(=O)(=O)c2ccc(F)cc2)c(Cn2c(C)c(CC(=O)O)c3ccc(C)nc32)c1	13	0.004	–
Cc1c(Cc2ccccc2S(=O)(=O)c2ccccc2)c(=O)n(-c2ccccc2)n1CC(=O)O	–	0.97	–
O=C(O)Cc1cc(Cl)c(=O)n(Cc2ccccc2S(=O)(=O)c2ccccc2)c1	–	0.86	–
O=C(O)Cn1nc(-c2ccccc2)cc(Cc2ccccc2S(=O)(=O)c2ccccc2)c1=O	–	–	< 25
O=C(O)Cn1c(-c2ccccc2)nn(Cc2ccccc2S(=O)(=O)c2ccccc2)c1=O	–	2.4	–
O=C(O)CN1c2cccnc2N(Cc2ccccc2S(=O)(=O)c2ccccc2)S1(=O)=O	–	1.6	–
Cc1c(CC(=O)O)c(-c2ccccc2)nn1Cc1ccccc1S(=O)(=O)c1ccccc1	0.1	–	–
Cc1ccc2c(CC(=O)O)c(C)n(Cc3ccccc3S(=O)(=O)c3ccccc3)c2n1	1.3	0.014	–
O=C(O)Cc1ccc(=O)n(Cc2ccccc2S(=O)(=O)c2ccccc2)c1	–	10	–
Cc1c(Cc2ccccc2S(=O)(=O)c2ccc(F)cc2)c2c(n1CC(=O)O)CCCC2=O	21	0.002	–
O=C(O)Cn1nc(-c2ccccc2)n(Cc2ccccc2S(=O)(=O)c2ccccc2)c1=O	–	–	< 25
O=C(O)Cc1cc(Cc2ccccc2S(=O)(=O)c2ccccc2)c2nc(C(F)(F)F)ccn12	0.05	0.047	–
Cc1c(CC(=O)O)c2ccncn2c1Cc1ccccc1S(=O)(=O)c1ccccc1	–	0.028	–
